Where two headings read alike, the source gives them in different places.
Assays:
HIV-1Ba-L [1] = test: Inhibition of virus replication in MAGI-CCR5 cells (β-galactosidase reporter); assay type: cell-based
Protocol: (§1) The anti-viral activity of dihydropyrimidines was shown by inhibition of virus replication in MAGI-CCR5 cells. MAGI-CCR5 cells are derived from HeLa-CD4-LTR-β-galactosidase cells. The cells have been engineered to express high levels of CD4 and CCR5 and contain one copy of the HIV-1 LTR promoter driving expression of the β-galactosidase gene upon HIV-1 Tat transactivation. On the day preceding the assay, the cells were plated at 1.0×10^4 cells per well and maintained at 37° C. and 5% CO2 in a humidified incubator. Total cell count and viability was visually assessed using a hemacytometer and trypan blue exclusion.
Compounds were evaluated at six concentrations (triplicate wells/concentration). On the day of assay setup, compound dilutions were prepared at two-times (2×) the final concentrations. Media was decanted and wells were replenished with 50 μl of 2× compounds, followed by the addition of 50 μl of diluted virus. Identical uninfected assays were prepared for parallel cytotoxicity testing.
Evaluation of Dihydropyrimidines vs. HIV-1Ba-L in MAGI-CCR5 Cells

HIV-1 K103N, Y181C (A17) = HIV-1 K103N, Y181C (A17) replication in PBMCs; assay type: cell-based; settings: for IC50: Human immunodeficiency virus 1, PBMC; for TI (TC50/IC50): Virus A17 (K103N, Y181C) in PBMCs
Excerpt: In another embodiment of the present disclosure compounds are provided which inhibit the replication of HIV strains resistant to NNRTIs. Compounds in this disclosure inhibit, A17, an HIV-1 virus with mutations in the RT non-nucleoside binding pocket, K103N and Y181C, in a dose-dependent susceptibility testing manner.
The asparagine variation at residue 103 and the cysteine variation at residue 181 are known to inhibit the activity of the NNRTI's.
Evaluation Dihydropyrimidines vs. HIV-1Ba-L and HIV-1 K103N, Y181C in PBMCs

[2] = Cytotoxicity by MTS staining in uninfected MAGI-CCR5 cells; assay type: cell-based; settings: human, read-out: TC50
Protocol: as §1, with “exclusion. Compounds were evaluated at six concentrations (triplicate wells/concentration). On the day of assay setup, compound dilutions were prepared at two-times (2×) the final concentrations. Media was decanted and wells were replenished with 50 μl of 2× compounds, followed by the addition of 50 μl of diluted virus. Identical uninfected assays were prepared for parallel cytotoxicity testing.” for “exclusion.”

[3] = Cytotoxicity by MTS staining in PBMCs; assay type: cell-based; settings: human, peripheral blood mononuclear cells (PBMC), read-out: TC50
Protocol: Cytotoxicity was assessed by MTS staining. At assay end-point, PBMC were stained with the addition of […] of the soluble tetrazolium-based dye MTS to determine cell viability and quantify compound toxicity. The plates were incubated 4 to 6 hrs at 37° C. Following incubation, the activity was assessed by reading absorbance values at 490/650 nm.

HIV-1Ba-L [4] = test: HIV-1Ba-L replication in PBMCs (supernatant RT end-point)
Protocol: Evaluation of Dihydropyrimidines vs. HIV-1Ba-L in Peripheral Blood Mononuclear Cells (PBMCs)
Cultures of pooled phytohemagglutinin stimulated peripheral blood mononuclear cells (PBMC) were seeded into a 96-well plate at plating density of 5×10^4 cells/well. Compounds were serially diluted into media in ½-log increments using a high test of […] and […] of each concentration (nine total concentrations). Cells were infected with HIV strains HIV-1Ba-L and NL4-3 at an MOI=0.1. The PBMCs were cultured for seven days in an humidified incubator maintained at 37° C., 5% CO2 atmosphere. At the assay end-point, the supernatant was collected and analyzed for reverse transcriptase activity. For the RT assay, tritiated thymidine triphosphate (3H-TTP, 80 Ci/mmol) was diluted 1:1 dH2O:Ethanol at 1 mCi/ml. Poly rA:oligo dT template:primer was prepared as a stock solution by combining 150 μl poly rA (20 mg/ml) with 0.5 mL oligo dT (20 units/ml) and 5.35 ml sterile dH2O followed by aliquoting (1.0 ml) and storage at −20° C. The RT reaction buffer contained of 125 ml 1.0 M EGTA, 125 ml dH2O, 125 ml 20% Triton X100, 50 ml 1.0 M Tris (pH 7.4), 50 ml 1.0 M DTT, and 40 ml 1.0 M MgCl2. The final reaction mixture was prepared by combining 1 part 3H-TTP, 4 parts dH2O, 2.5 parts poly rA:oligo dT stock and 2.5 parts reaction buffer. To each well, ten microliters of the reaction mixture and 15 μl of virus containing supernatant were added. The plates were incubated at 37° C. for 60 minutes. Following incubation, the reaction volume was spotted onto DE81 filter-mats, washed 5 times for 5 minutes each in a 5% sodium phosphate buffer or 2×SSC. […] were washed 2 times for 1 minute each in distilled water, 2 times for 1 minute each in 70% ethanol, and then dried. Incorporated radioactivity (counts per minute, CPM) was quantified using standard liquid scintillation techniques.

[5] = Human immunodeficiency virus 1, HIV-1Ba-L in MAGI-CCR5 cells, 48 hours, β-galactosidase reporter expression, read-out: IC50
[6] = Human immunodeficiency virus 1, BAL, PBMC
[7] = Human immunodeficiency virus 1, PBMC, 168 h
[8] = Virus Ba-L in PBMCs (Ba-L vs A17 comparison)

| Compound | TI (TC50/IC50) (HIV-1Ba-L [1]; HIV-1Ba-L in MAGI-CCR5 cells) | IC50 (HIV-1Ba-L [1]; [5]) [µM] | IC50 (HIV-1 K103N, Y181C (A17)) [µM] | TI (TC50/IC50) (HIV-1 K103N, Y181C (A17)) | CC50 at 48 h [2] [µM] | CC50 at 7 days ([3]; A17 line of the table) [µM] | CC50 at 7 days ([3]; Ba-L line of the table) [µM] | CC50 at 7 days ([3]; MTS staining) [µM] | TI (TC50/IC50) (HIV-1Ba-L [4]; HIV-1Ba-L in PBMCs) | IC50 (HIV-1Ba-L [4]; [6]) [µM] | IC50 (HIV-1Ba-L [4]; [7]) [µM] | TI (TC50/IC50) (HIV-1Ba-L [4]; [8]) | IC50 (HIV-1Ba-L [1]; Human immunodeficiency virus 1, MAGI-CCR5, 48 h) [µM] |
| --- | --- | --- | --- | --- | --- | --- | --- | --- | --- | --- | --- | --- | --- |
| CC1=C(c2nc(-c3ccc(C#N)cc3)cs2)C(c2ccc(C(F)(F)F)nc2)NC(=O)N1 (stereo not drawn) [Example 96] | A (A = TI (TC50/IC50) ≧ 100.0) | < 1 | 5 to 100 | D (D < 10.0) | ≥ 100 | ≥ 100 | ≥ 100 | ≥ 100 | A (A = TI (TC50/IC50) ≧100.0) | < 1 | < 1 | A (A = TI (TC50/IC50) ≧ 100.0) | – |
| CC1=C(c2nc(-c3ccc(C#N)cc3C)cs2)C(c2cc3ccccc3n2C)NC(=O)N1 (stereo not drawn) [Example 87] | A (A = TI (TC50/IC50) ≧ 100.0) | < 1 | 5 to 100 | C (C < 50.0-10.0) | ≥ 100 | ≥ 100 | ≥ 100 | ≥ 100 | A (A = TI (TC50/IC50) ≧100.0) | < 1 | < 1 | A (A = TI (TC50/IC50) ≧ 100.0) | – |
| CC1=C(c2nc(-c3cccc(C#N)c3)cs2)C(c2cccc(O)c2)NC(=O)N1C (stereo not drawn) [Example 68] | D (D < 10.0) | 5 to 100 | – | – | ≥ 100 | – | – | 50 to 100 | D (D < 10.0) | – | 5 to 100 | – | – |
| CC1=C(c2nc(-c3ccc(C#N)cc3)cs2)C(c2cccc(F)c2)NC(=O)N1 (stereo not drawn) [Example 50] | C (C < 50.0 to 10.0) | 1 to 5 | – | – | ≥ 100 | – | – | ≥ 100 | A (A = TI (TC50/IC50) ≧100.0) | – | < 1 | – | – |
| CC1=C(c2nc(-c3ccc(C#N)cc3)cs2)C(c2ccc(Cl)nc2)NC(=O)N1 (stereo not drawn) [Example 3] | A (A = TI (TC50/IC50) ≧ 100.0) | 1 to 5 | – | – | ≥ 100 | – | – | ≥ 100 | A (A = TI (TC50/IC50) ≧100.0) | – | < 1 | – | – |
| CC1=C(c2nc(-c3ccc(C#N)cc3)cs2)C(c2ccc(O)cc2)NC(=O)N1 (stereo not drawn) [Example 48] | A (A = TI (TC50/IC50) ≧ 100.0) | < 1 | – | – | ≥ 100 | – | – | ≥ 100 | A (A = TI (TC50/IC50) ≧100.0) | – | < 1 | – | – |
| CC1=C(c2nc(-c3ccc(C#N)cc3)cs2)C(c2cccnc2F)NC(=O)N1 (stereo not drawn) [Example 29] | A (A = TI (TC50/IC50) ≧ 100.0) | < 1 | – | – | ≥ 100 | – | – | ≥ 100 | A (A = TI (TC50/IC50) ≧100.0) | – | < 1 | – | – |
| CC1=C(c2nc(-c3ccc(Br)cc3)cs2)C(c2cccc(O)c2)NC(=O)N1 (stereo not drawn) [Example 35] | C (C < 50.0 to 10.0) | 1 to 5 | – | – | 50 to 100 | – | – | 50 to 100 | C (C < 50.0-10.0) | – | 1 to 5 | – | – |
| CC1=C(c2nc(-c3ccc(C#N)cc3)cs2)C(c2ccc(OCc3ccccc3)c(Cl)c2)NC(=O)N1 (stereo not drawn) [Example 81] | B (B < 100.0-50.0) | 1 to 5 | – | – | ≥ 100 | – | – | ≥ 100 | A (A = TI (TC50/IC50) ≧100.0) | – | < 1 | – | – |
| CC1=C(c2nc(-c3ccc(C#N)cc3)cs2)C(c2cc(O)cc(O)c2)NC(=O)N1 (stereo not drawn) [Example 80] | D (D < 10.0) | > 100 | – | – | ≥ 100 | – | – | ≥ 100 | B (B < 100.0-50.0) | – | 1 to 5 | – | – |
| CC1=C(c2nc(-c3ccc(C#N)cc3)cs2)C(c2cccc(O)c2)NC(=O)N1C (stereo not drawn) [Example 69] | B (B < 100.0-50.0) | 1 to 5 | – | – | ≥ 100 | – | – | ≥ 100 | C (C < 50.0-10.0) | – | 1 to 5 | – | – |
| CC1=C(c2nc(-c3ccccc3)cs2)C(c2cccc(O)c2)NC(=O)N1 (stereo not drawn) [Example 33] | D (D < 10.0) | 5 to 100 | – | – | ≥ 100 | – | – | 50 to 100 | D (D < 10.0) | – | 5 to 100 | – | – |
| COc1ccc(C2NC(=O)NC(C)=C2c2nc(-c3ccc(C#N)cc3)cs2)cc1 (stereo not drawn) [Example 64] | B (B < 100.0-50.0) | < 1 | – | – | < 50 | – | – | ≥ 100 | A (A = TI (TC50/IC50) ≧100.0) | – | < 1 | – | – |
| CC1=C(c2nc(-c3ccc(C#N)cc3)cs2)C(c2ccc(=O)[nH]c2)NC(=O)N1 (stereo not drawn) [Example 18] | D (D < 10.0) | > 100 | – | – | ≥ 100 | – | – | ≥ 100 | D (D < 10.0) | – | > 100 | – | – |
| CC1=C(c2nc(-c3ccc(C#N)cc3)cs2)C(c2cccc(C(F)(F)F)c2)NC(=O)N1 (stereo not drawn) [Example 71] | B (B < 100.0-50.0) | 1 to 5 | – | – | ≥ 100 | – | – | ≥ 100 | C (C < 50.0-10.0) | – | 5 to 100 | – | – |
| CC1=C(c2nc(-c3ccc(C#N)cc3)cs2)C(c2ccc3cccc(O)c3n2)NC(=O)N1 (stereo not drawn) [Example 23] | A (A = TI (TC50/IC50) ≧ 100.0) | < 1 | – | – | 50 to 100 | – | – | ≥ 100 | A (A = TI (TC50/IC50) ≧100.0) | – | < 1 | – | – |
| Cc1nnc(C(=O)NC(C)(C)c2nc(C(=O)NCc3ccc(F)cc3)c(O)c(=O)n2C)o1 [Raltegravir, reference compound] | >3.85 | – | – | – | > 100 | – | – | > 1 | >371.0 | – | 0.003 | – | 0.026 |
| CC1=C(c2nc(-c3ccc4ccccc4c3)cs2)C(c2cccc(O)c2)NC(=O)N1 (stereo not drawn) [Example 36] | D (D < 10.0) | 5 to 100 | – | – | 50 to 100 | – | – | < 50 | D (D < 10.0) | – | 5 to 100 | – | – |
| CC1=C(c2nc(-c3ccc(C#N)cc3)cs2)C(c2ccnc3ccccc23)NC(=O)N1 (stereo not drawn) [Example 15] | B (B < 100.0-50.0) | 1 to 5 | – | – | ≥ 100 | – | – | ≥ 100 | B (B < 100.0-50.0) | – | 1 to 5 | – | – |

Reference: patent publication US9120787B2, “HIV replication inhibitors” (priority 2011, dated 2015)
